target: URAT1 (Homo sapiens (Human), UniProt Q96S37); experiment: URAT1-model assay, 14C-uric acid transport in HEK293/URAT1-model cells; assay type: cell-based; settings: 14C-uric acid 125 μM, 10 minutes at room temperature, read-out: URAT1 EC50 Activity Ranking
Description: HEK293 human embryonic kidney cells (ATCC #CRL-1573) were propagated in EMEM tissue culture medium as described by ATCC in an atmosphere of 5% C02 and 95% air. Transfections of HEK293 cells with a model URAT1 construct was performed using L2000 transfection reagent (Invitrogen) as described by the manufacturer. After 24 h the transfected cells were split into 10 cm tissue culture plates and grown for 1 day after which the medium was replaced with fresh growth medium containing G418 (Gibco) at 0.5 mg/ml final concentration. Drug-resistant colonies were selected after approximately 8 days and then tested for ^14C-uric acid transport activity. The HEK293/URAT1-model cells are plated on Poly-D-Lysine Coated 96-well Plates at a density of 125,000 cells per well.
Cells were grown overnight (20-26 hours) at 37° C. in an incubator. Plates were allowed to come to room temperature and media was washed out with one wash of 250 μl of Wash Buffer (125 mM Na Gluconate, 10 mM Hepes ph 7.3). Compound or vehicle is added in assay buffer with ^14C-uric acid for a final concentration of 125 μM Uric Acid with a specific activity of 54 mCi/mmol. Assay Buffer is 125 mM Sodium Gluconate, 4.8 mM Potassium Gluconate, 1.2 mM Potassium phosphate, monobasic, 1.2 mM magnesium sulfate, 1.3 mM Ca Gluconate, 5.6 mM Glucose, 25 mM HEPES, pH 7.3. Plates were incubated at room temperature for 10 minutes then washed 3 times with 50 μl Wash Buffer and 3 times with 250 μl Wash Buffer. Microscint 20 Scintillation Fluid was added and plates were incubated overnight at room temperature to equilibrate. Plates are then read on the TopCount Plate Reader and an EC50 value generated. (See Enomoto et al, Nature, 2002, 417, 447-451 and Anzai et al, J. Biol. Chem., 2004, 279, 45942-45950.)

Chain of URAT1 (Q96S37 whole entry, species assumed): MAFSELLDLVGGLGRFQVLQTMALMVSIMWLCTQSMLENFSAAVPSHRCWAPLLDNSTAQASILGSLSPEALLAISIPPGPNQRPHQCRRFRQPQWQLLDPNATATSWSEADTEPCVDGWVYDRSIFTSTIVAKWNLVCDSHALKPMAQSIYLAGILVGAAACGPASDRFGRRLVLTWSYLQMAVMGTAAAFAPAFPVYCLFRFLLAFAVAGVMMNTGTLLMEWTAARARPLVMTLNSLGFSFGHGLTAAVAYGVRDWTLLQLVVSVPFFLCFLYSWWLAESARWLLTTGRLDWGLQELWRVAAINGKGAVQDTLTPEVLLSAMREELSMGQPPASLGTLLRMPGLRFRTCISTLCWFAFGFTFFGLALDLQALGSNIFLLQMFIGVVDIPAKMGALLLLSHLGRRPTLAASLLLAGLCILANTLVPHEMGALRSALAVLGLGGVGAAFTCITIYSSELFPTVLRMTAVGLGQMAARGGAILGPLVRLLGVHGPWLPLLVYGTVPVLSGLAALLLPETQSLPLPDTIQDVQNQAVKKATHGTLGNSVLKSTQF

Row | SMILES | EC50 [nM]
1 | CC(C)(Sc1cccnc1-c1ccc(C#N)cc1)C(=O)O [Example 1A, 2-(2-(4-Cyanophenyl)pyridin-3-ylthio)-2-methylpropanoic acid] | 50 to 500
2 | CC(C)(Sc1ccncc1-c1ccc(C#N)cc1)C(=O)O [Example 2A, 2-(3-(4-Cyanophenyl)pyridin-4-ylthio)-2-methylpropanoic acid] | 1 to 50
3 | CC(C)(Sc1ccncc1-c1ccc(O)cc1)C(=O)O [Example 2AAA] | 1 to 50
4 | CC(C)(Sc1ccncc1-c1ccc(Br)c2ccccc12)C(=O)O [Example 2AA] | 50 to 500
5 | CC(C)(Sc1ccncc1-c1ccc(C#N)c(F)c1)C(=O)O [Example 2BBB] | 50 to 500
6 | Cc1ccc(-c2cnccc2SC(C)(C)C(=O)O)c2ccccc12 [Example 2BB] | 50 to 500
7 | Cc1ccc(-c2cnccc2SC(C)(C)C(=O)O)cc1 [Example 2CCC] | 50 to 500
8 | CC(C)(Sc1ccncc1-c1ccc(S(N)(=O)=O)cc1)C(=O)O [Example 2CC] | 50 to 500
9 | CC(C)(Sc1ccncc1-c1ccc(C#N)c2ccccc12)C(=O)O [Example 2C] | 1 to 50
10 | CC(=O)Nc1ccc(-c2cnccc2SC(C)(C)C(=O)O)cc1 [Example 2DDD] | 50 to 500
11 | CC(C)(Sc1ccncc1-c1cccc2ccccc12)C(=O)O [Example 2DD] | 50 to 500
12 | CC(C)(Sc1ccncc1-c1ccc(S(=O)(=O)NC2CC2)cc1)C(=O)O [Example 2D] | 50 to 500
13 | CC(C)(Sc1ccncc1-c1ccc(S(C)(=O)=O)cc1)C(=O)O [Example 2EEE] | 50 to 500
14 | CC(C)(Sc1ccncc1-c1ccc(Cl)c(C(F)(F)F)c1)C(=O)O [Example 2EE] | 50 to 500
15 | CC(C)(Sc1ccncc1-c1ccc(C#N)c(Cl)c1)C(=O)O [Example 2FFF] | 1 to 50
16 | CC(C)(Sc1ccncc1-c1cnc2ccccc2c1)C(=O)O [Example 2F] | 50 to 500
17 | CC(C)(Sc1ccncc1-c1ccc(S)cc1)C(=O)O [Example 2GGG] | 50 to 500
18 | CC(C)(Sc1ccncc1-c1ccc(F)cc1)C(=O)O [Example 2GG] | 50 to 500
19 | CC(C)(Sc1ccncc1-c1cccc2ncccc12)C(=O)O [Example 2H] | 50 to 500
20 | CC(C)(Sc1ccncc1-c1ccc(C#N)cc1F)C(=O)O [Example 2III] | 1 to 50
21 | CC(C)(Sc1ccncc1-c1ccnc2ccccc12)C(=O)O [Example 2II] | 50 to 500
22 | CC(C)(Sc1ccncc1-c1ccc(C(N)=O)cc1F)C(=O)O [Example 2JJJ] | 50 to 500
23 | CC(C)(Sc1ccncc1-c1ccc(CO)cc1)C(=O)O [Example 2JJ] | 1 to 50
24 | N#Cc1ccc(-c2cnccc2SC2(C(=O)O)CCC2)c2ccccc12 [Example 2J] | 1 to 50

Row | SMILES | EC50 [nM]
25 | CC(C)(Sc1ccncc1-c1ccc(C(N)=O)cc1)C(=O)O [Example 2KK] | 50 to 500
26 | CCc1ccc(-c2cnccc2SC(C)(C)C(=O)O)cc1 [Example 2K] | 50 to 500
27 | COc1cncc(-c2cnccc2SC(C)(C)C(=O)O)c1 [Example 2MM] | 50 to 500
28 | Cc1cc(C#N)ccc1-c1cnccc1SC(C)(C)C(=O)O [Example 2NN] | 1 to 50
29 | CC(C)(Sc1ccncc1-c1ccc(C(F)(F)F)cc1)C(=O)O [Example 2N] | 50 to 500
30 | CC(C)(Sc1ccncc1-c1ccc(Cl)cc1)C(=O)O [Example 2O] | 1 to 50
31 | CC(C)(Sc1ccncc1-c1ccncc1)C(=O)O [Example 2PP] | 1 to 50
32 | CC(C)(Sc1ccncc1-c1ccc(Cl)cc1)C(=O)O [Example 2P] | 1 to 50
33 | CSc1ccc(-c2cnccc2SC(C)(C)C(=O)O)cc1 [Example 2Q] | 50 to 500
34 | CC(C)(Sc1ccncc1-c1ccc(Cl)c(Cl)c1)C(=O)O [Example 2S] | 50 to 500
35 | CC(C)(Sc1ccncc1-c1cccc(C#N)c1)C(=O)O [Example 2TT] | 50 to 500
36 | COc1ccc(-c2cnccc2SC(C)(C)C(=O)O)cn1 [Example 2T] | 50 to 500
37 | CC(C)(Sc1ccncc1-c1ccc(Br)cc1)C(=O)O [Example 2UU] | 1 to 50
38 | CC(C)(Sc1ccncc1-c1cncc2ccccc12)C(=O)O [Example 2U] | 50 to 500
39 | Cc1cc(C(N)=O)ccc1-c1cnccc1SC(C)(C)C(=O)O [Example 2WW] | 50 to 500
40 | CC(C)(Sc1ccncc1-c1ccc(F)c(F)c1)C(=O)O [Example 2W] | 50 to 500
41 | COc1ccc(-c2cnccc2SC(C)(C)C(=O)O)cc1 [Example 2XX] | 50 to 500
42 | CC(C)(Sc1ccncc1-c1ccc(F)c2ccccc12)C(=O)O [Example 2X] | 1 to 50
43 | COc1cc(-c2cnccc2SC(C)(C)C(=O)O)ccc1C#N [Example 2ZZ] | 50 to 500
44 | CC(C)(Sc1cnccc1-c1ccc(C#N)cc1)C(=O)O [Example 3A, 2-(4-(4-Cyanophenyl)pyridin-3-ylthio)-2-methylpropanoic acid] | 500 to 10000
45 | N#Cc1ccc(-c2cccnc2SC2(C(=O)O)CCC2)c2ccccc12 [Example 4C] | 50 to 500
46 | N#Cc1ccc(-c2nccnc2SCC(=O)O)c2ccccc12 [Example 5A, 2-(3-(4-Cyanonaphthalen-1-yl)pyrazin-2-ylthio)acetic acid] | 500 to 10000
47 | N#Cc1ccc(-c2cncnc2SCC(=O)O)c2ccccc12 [Example 6A, 2-(5-(4-Cyanonaphthalen-1-yl)pyrimidin-4-ylthio)acetic acid] | 500 to 10000
48 | N#Cc1ccc(-c2ncncc2SCC(=O)O)c2ccccc12 [Example 7A, 2-(4-(4-Cyanonaphthalen-1-yl)pyrimidin-5-ylthio)acetic acid] | 500 to 10000
